Experimental data published in ChEMBL document CHEMBL4842345, “Design, synthesis and biological evaluation of tanshinone IIA-based analogues: Potent inhibitors of microtubule formation and angiogenesis” (Eur J Med Chem, 2021).
pIC50: −log10 of the molar value.

Experiments:
A549 = experiment: Antiproliferative activity against human A549 cells assessed as reduction in cell viability measured after 72 hrs by MTT assay; assay type: functional, cell-based; conditions: A549, 72 h
MGC-803 = experiment: Antiproliferative activity against human MGC-803 cells assessed as reduction in cell viability measured after 72 hrs by MTT assay; assay type: functional, cell-based; conditions: MGC-803, 72 h
HepG2 = experiment: Antiproliferative activity against human HepG2 cells assessed as reduction in cell viability measured after 72 hrs by MTT assay; assay type: functional, cell-based; conditions: HepG2, 72 h
U-937 = experiment: Antiproliferative activity against human U-937 cells assessed as reduction in cell viability measured after 72 hrs by MTT assay; assay type: functional, cell-based; conditions: U-937, 72 h
HeLa = experiment: Antiproliferative activity against human HeLa cells assessed as reduction in cell viability measured after 72 hrs by MTT assay; assay type: functional, cell-based
MCF7 = experiment: Antiproliferative activity against human MCF7 cells assessed as reduction in cell viability measured after 72 hrs by MTT assay; assay type: functional, cell-based; conditions: MCF7, 72 h
[1] = Kinetic solubility of the compound at pH 6.5 by nephelometry; assay type: physicochemical; conditions: buffer, read-out: Kinetic_solubility
[2] = Metabolic stability in human liver microsomes assessed as degradation half life; assay type: ADME, Microsome; conditions: liver microsomes
[3] = Kinetic solubility of the compound at pH 2 by nephelometry; assay type: physicochemical; conditions: buffer, read-out: Kinetic_solubility
[4] = Intrinsic clearance in human liver microsome; assay type: ADME, microsomes; conditions: liver microsomes, read-out: CLH

Row | SMILES | pIC50 (A549) | pIC50 (MGC-803) | pIC50 (HepG2) | pIC50 (U-937) | pIC50 (HeLa) | pIC50 (MCF7) | solubility kinetic [1] [µg/mL] | half-life [2] [min] | solubility kinetic [3] [µg/mL] | microsomal CLint [4] [µL/min/mg]
1 | Cc1cc2c(o1)-c1c(O)cccc1C(=O)C2=O | < 5.30 | < 5.30 | < 5.30 | < 5.30 | < 5.30 | < 5.30 |  |  |  | 
2 | COc1cccc2c1-c1oc(C)cc1C(=O)C2=O | 5.56 | < 5.30 | 5.32 | 5.49 | 5.68 | < 5.30 |  |  |  | 
3 | Cc1coc2c1C(=O)C(=O)c1c-2ccc2c1CCCC2(C)C [TANSHINONE IIA] | 5.66 | < 5.30 | 5.31 | < 5.30 | 5.46 | < 5.30 | < 5 | 10 | < 5 | 45
4 | Cc1cc2c(o1)-c1ccc(C(C)C)cc1C(=O)C2=O | 5.60 | 5.71 | 5.62 | 5.78 | 5.67 | 5.62 |  |  |  | 
5 | Cc1coc2c1C(=O)C(=O)c1cc(O)ccc1-2 | < 5.30 | < 5.30 | < 5.30 | < 5.30 | < 5.30 | < 5.30 |  |  |  | 
6 | Cc1cc2c(o1)-c1ccccc1C(=O)C2=O | 5.52 | 5.45 | 5.56 | 5.80 | 5.82 | 5.89 |  |  |  | 
7 | Cc1coc2c1C(=O)C(=O)c1cccc(O)c1-2 | < 5.30 | < 5.30 | < 5.30 | < 5.30 | < 5.30 | < 5.30 |  |  |  | 

Now those with a higher pIC50 (A549), led by results:

Row | pIC50 (A549) | pIC50 (MGC-803) | pIC50 (HepG2) | pIC50 (U-937) | pIC50 (HeLa) | pIC50 (MCF7) | solubility kinetic [1] [µg/mL] | half-life [2] [min] | solubility kinetic [3] [µg/mL] | microsomal CLint [4] [µL/min/mg] | SMILES
8 | 6.12 | < 5.30 | 5.46 | 5.47 | 5.86 | < 5.30 |  |  |  |  | COc1ccc2c(c1)C(=O)C(=O)c1cc(C)oc1-2
9 | 5.75 | 5.64 | 5.89 | 5.60 | 5.81 | 5.35 |  |  |  |  | Cc1coc2c1C(=O)C(=O)c1cc(Cl)ccc1-2
10 | 6.03 | 5.40 | < 5.30 | 5.44 | 5.55 | < 5.30 |  |  |  |  | COc1ccc2c(c1)C(=O)C(=O)c1c(C)coc1-2
11 | 6.70 | 5.55 | 5.91 | 5.57 | 5.93 | < 5.30 |  |  |  |  | Cc1cc2c(o1)-c1ccc3c(c1C(=O)C2=O)CCCC3(C)C
12 | 5.82 | < 5.30 | 5.49 | 5.66 | 5.37 | 5.45 |  |  |  |  | Cc1coc2c1C(=O)C(=O)c1cc(C(C)C)ccc1-2
13 | 5.75 | 5.53 | 5.40 | 5.45 | 5.64 | < 5.30 |  |  |  |  | Cc1cc2c(o1)-c1ccc(O)cc1C(=O)C2=O
14 | 6.37 | 5.41 | 5.42 | < 5.30 | 5.63 | < 5.30 |  |  |  |  | COc1cccc2c1-c1occ(C)c1C(=O)C2=O
15 | 6.07 | 5.72 | 5.69 | 5.92 | 6.02 | 5.80 |  |  |  |  | Cc1coc2c1C(=O)C(=O)c1ccccc1-2
